In assay [1] the target is T1, Histone-lysine N-methyltransferase, H3 lysine-36 specific (Homo sapiens, UniProt Q96L73). The assay is described as follows: Inhibition of N-terminal polyhistidine-tagged recombinant human NSD1 (1538 to 2696 residues) expressed in baculovirus infected insect cell using SAM as substrate preincubated for 20 mins followed by substrate addition measured after 1 hrs by hotspot assay.

Assay [2] deals with T2, Histone-lysine N-methyltransferase NSD3 (Homo sapiens, UniProt Q9BZ95).
T2 sequence (Q9BZ95 whole entry): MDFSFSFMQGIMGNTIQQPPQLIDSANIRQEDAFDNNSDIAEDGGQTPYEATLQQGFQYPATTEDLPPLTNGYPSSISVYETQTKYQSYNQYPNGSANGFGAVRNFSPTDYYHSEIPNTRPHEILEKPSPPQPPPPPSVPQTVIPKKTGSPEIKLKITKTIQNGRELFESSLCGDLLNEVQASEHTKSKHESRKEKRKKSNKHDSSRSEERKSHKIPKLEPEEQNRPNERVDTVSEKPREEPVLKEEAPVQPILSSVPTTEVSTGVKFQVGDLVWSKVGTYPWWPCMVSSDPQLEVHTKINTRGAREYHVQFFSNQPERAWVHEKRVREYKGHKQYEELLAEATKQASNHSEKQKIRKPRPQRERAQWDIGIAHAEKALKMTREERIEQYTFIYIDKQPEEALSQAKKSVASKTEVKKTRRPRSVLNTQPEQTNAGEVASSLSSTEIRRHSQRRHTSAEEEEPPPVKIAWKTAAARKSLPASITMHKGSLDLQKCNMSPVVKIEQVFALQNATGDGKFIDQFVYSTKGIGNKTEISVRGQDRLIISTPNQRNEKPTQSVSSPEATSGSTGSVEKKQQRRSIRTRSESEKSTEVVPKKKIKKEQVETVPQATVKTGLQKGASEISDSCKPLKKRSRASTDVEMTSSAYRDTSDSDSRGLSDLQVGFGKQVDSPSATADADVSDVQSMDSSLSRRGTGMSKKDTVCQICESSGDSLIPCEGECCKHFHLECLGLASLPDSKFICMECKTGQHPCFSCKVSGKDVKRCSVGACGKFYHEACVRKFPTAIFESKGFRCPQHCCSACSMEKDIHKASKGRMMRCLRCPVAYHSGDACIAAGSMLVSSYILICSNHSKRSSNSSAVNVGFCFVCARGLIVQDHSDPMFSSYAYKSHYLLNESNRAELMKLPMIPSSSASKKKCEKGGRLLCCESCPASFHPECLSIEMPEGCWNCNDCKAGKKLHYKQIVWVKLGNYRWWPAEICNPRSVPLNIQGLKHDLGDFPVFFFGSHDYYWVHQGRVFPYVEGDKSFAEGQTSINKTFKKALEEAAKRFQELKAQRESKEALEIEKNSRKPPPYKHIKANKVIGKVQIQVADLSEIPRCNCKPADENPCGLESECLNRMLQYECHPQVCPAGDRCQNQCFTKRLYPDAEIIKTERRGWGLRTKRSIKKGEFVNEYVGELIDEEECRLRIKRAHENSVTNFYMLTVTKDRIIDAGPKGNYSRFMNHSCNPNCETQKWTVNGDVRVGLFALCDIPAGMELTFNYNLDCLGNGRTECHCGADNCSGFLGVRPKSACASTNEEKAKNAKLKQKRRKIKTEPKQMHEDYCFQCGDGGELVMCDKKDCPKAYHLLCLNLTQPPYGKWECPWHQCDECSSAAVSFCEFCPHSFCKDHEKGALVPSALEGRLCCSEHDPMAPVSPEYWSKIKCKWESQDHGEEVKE
Nature of the assay: Inhibition of N-terminal GST-fused recombinant human NSD3 (1021 to 1322 residues) expressed in Escherichia coli using SAM as substrate preincubated for 20 mins followed by substrate addition measured after 1 hrs by hotspot assay.

A short description of assay [3]: Inhibition of C-terminal NanoLuc-tagged human NSD3 PWWP1 domain/ C-terminal HaloTag fused histone H3 (unknown origin) interaction transfected in human U2OS cells. The format is cell-based.
Assay [4] relates to MOLM-13. Nature of the assay: Antiproliferative activity against human MOLM-13 cells assessed as cell growth inhibition measured after 6 days by RealTime-Glow MT cell viability assay. The format is functional, cell-based. Particulars: MOLM-13, 144 h.
A short description of assay [5]: Antiproliferative activity against human RN 22 cells assessed as cell growth inhibition measured after 6 days by RealTime-Glow MT cell viability assay. The format is functional, cell-based. The conditions noted are these: RN 22, 144 h.
Assay [6] has as its system MOLM-13. Nature of the assay: Antiproliferative activity against human MOLM-13 cells assessed as cell growth inhibition measured after 6 days in presence of JQ1 by RealTime-Glow MT cell viability assay. The class given is functional, cell-based. Particulars: MOLM-13, 144 h.
The target in assay [7] is T2, Histone-lysine N-methyltransferase NSD3. Nature of the assay: Binding affinity to human NSD3 […] domain (247 to 402 residues) expressed in Escherichia coli assessed as dissociation constant.
Assay [8] addresses von Hippel-Lindau disease tumor suppressor/Histone-lysine N-methyltransferase NSD3 (Homo sapiens, UniProt P40337+Q9BZ95). Nature of the assay: PROTAC activity at VHL/NSD3 […] domain in human MOLM-13 cells assessed as […] measured after 48 hrs by immunoblotting analysis. The format is cell-based.
For the next assay, the system named is EOL1. Nature of the assay: Antiproliferative activity against human EOL1 cells assessed as cell growth inhibition measured after 8 days. The format is functional, cell-based. Particulars: EOL1, 192 h.
The next assay relates to RS4-11. Nature of the assay: Antiproliferative activity against human RS4-11 cells assessed as cell growth inhibition measured after 8 days. The format is functional, cell-based. The conditions noted are these: RS4-11, 192 h.
In another assay the test system is MM1.S. The assay is described as follows: Antiproliferative activity against human MM1.S cells assessed as cell growth inhibition measured after 8 days. The conditions noted are these: 192 h. The class given is functional, cell-based.
Assay [9] concerns the target T2, Histone-lysine N-methyltransferase NSD3. The assay is described as follows: Inhibition of NSD3 PWWP1 domain (unknown origin) assessed as […] by SPR analysis.
Assay [10] has the same target. The assay is described as follows: Inhibition of NSD3 PWWP1 domain (unknown origin) by TR-FRET assay.
Assay [11] has the same target. Nature of the assay: Inhibition of N-terminal His-TEV-tagged human NSD3 (1054 to 1285 residues ) expressed in Escherichia coli using 3[H] SAM as substrate measured after 30 mins by biochemical assay.
The target in assay [12] is T3, Histone-lysine N-methyltransferase NSD2 (Homo sapiens, UniProt O96028).
T3 sequence (O96028 whole entry): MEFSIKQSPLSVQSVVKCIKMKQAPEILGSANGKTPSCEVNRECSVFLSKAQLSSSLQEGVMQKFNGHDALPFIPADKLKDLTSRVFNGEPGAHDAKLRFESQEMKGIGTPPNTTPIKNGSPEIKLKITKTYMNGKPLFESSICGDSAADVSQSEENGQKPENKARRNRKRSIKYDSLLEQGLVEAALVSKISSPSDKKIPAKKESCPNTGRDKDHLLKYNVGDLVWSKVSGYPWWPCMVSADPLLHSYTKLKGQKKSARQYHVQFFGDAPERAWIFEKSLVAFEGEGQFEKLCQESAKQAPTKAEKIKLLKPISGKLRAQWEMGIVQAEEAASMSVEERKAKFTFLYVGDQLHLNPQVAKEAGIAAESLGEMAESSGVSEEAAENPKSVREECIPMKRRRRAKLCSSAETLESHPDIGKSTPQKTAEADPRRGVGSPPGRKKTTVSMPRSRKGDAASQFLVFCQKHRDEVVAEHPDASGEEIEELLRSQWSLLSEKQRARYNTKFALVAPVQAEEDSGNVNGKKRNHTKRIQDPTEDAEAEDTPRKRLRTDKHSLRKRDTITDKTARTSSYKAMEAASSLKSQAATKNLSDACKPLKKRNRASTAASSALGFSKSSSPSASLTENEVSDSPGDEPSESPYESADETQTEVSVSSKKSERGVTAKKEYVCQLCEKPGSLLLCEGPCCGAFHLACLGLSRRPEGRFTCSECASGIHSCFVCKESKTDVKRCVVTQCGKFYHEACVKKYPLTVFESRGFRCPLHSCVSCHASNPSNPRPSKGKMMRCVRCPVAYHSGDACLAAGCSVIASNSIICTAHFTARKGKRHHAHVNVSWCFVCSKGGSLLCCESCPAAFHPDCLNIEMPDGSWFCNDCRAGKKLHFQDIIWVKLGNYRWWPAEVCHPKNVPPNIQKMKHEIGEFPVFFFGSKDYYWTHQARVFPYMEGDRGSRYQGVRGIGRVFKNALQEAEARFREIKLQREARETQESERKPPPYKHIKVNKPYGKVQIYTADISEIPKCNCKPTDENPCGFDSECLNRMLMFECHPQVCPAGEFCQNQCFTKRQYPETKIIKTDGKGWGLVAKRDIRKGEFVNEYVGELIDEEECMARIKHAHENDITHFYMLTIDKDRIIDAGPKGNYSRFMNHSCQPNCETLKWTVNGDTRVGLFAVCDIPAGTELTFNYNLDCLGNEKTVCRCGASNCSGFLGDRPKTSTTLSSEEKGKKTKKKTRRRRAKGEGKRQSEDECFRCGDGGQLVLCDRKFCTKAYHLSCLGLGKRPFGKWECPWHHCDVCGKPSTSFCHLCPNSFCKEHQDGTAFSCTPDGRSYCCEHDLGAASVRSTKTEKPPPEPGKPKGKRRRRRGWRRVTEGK
Nature of the assay: Inhibition of N-terminal GST-tagged human NSD2 (941 to 1240 residues ) expressed in Escherichia coli using 3[H] SAM as substrate measured after 30 mins by biochemical assay.

Assay [13] addresses T2, Histone-lysine N-methyltransferase NSD3. The assay is described as follows: Inhibition of human NSD3 overexpressed in Escherichia coli BL21(DE3) using nucleosome as substrate by SPA analysis.
For assay [14], the target named is T1, Histone-lysine N-methyltransferase, H3 lysine-36 specific. Nature of the assay: Inhibition of human NSD1 overexpressed in Escherichia coli BL21(DE3) using nucleosome as substrate by SPA analysis.
Assay [15] deals with T3, Histone-lysine N-methyltransferase NSD2. The assay is described as follows: Inhibition of human NSD2 overexpressed in Escherichia coli BL21(DE3) using nucleosome as substrate by SPA analysis.

Starred links: 1 amine or outer side, 2 acyl side, 3 side chain; linkers in the order of their positions; H or OH if unused. Non-standard residues stand in square brackets, D forms with d. Residues, ends and D or L forms follow the SMILES beside them. X1 = CCC[C@H](C)[C@H](N[*:1])C(=O)[*:2]

T1 sequence (Q96L73 whole entry, the tested form may be a part): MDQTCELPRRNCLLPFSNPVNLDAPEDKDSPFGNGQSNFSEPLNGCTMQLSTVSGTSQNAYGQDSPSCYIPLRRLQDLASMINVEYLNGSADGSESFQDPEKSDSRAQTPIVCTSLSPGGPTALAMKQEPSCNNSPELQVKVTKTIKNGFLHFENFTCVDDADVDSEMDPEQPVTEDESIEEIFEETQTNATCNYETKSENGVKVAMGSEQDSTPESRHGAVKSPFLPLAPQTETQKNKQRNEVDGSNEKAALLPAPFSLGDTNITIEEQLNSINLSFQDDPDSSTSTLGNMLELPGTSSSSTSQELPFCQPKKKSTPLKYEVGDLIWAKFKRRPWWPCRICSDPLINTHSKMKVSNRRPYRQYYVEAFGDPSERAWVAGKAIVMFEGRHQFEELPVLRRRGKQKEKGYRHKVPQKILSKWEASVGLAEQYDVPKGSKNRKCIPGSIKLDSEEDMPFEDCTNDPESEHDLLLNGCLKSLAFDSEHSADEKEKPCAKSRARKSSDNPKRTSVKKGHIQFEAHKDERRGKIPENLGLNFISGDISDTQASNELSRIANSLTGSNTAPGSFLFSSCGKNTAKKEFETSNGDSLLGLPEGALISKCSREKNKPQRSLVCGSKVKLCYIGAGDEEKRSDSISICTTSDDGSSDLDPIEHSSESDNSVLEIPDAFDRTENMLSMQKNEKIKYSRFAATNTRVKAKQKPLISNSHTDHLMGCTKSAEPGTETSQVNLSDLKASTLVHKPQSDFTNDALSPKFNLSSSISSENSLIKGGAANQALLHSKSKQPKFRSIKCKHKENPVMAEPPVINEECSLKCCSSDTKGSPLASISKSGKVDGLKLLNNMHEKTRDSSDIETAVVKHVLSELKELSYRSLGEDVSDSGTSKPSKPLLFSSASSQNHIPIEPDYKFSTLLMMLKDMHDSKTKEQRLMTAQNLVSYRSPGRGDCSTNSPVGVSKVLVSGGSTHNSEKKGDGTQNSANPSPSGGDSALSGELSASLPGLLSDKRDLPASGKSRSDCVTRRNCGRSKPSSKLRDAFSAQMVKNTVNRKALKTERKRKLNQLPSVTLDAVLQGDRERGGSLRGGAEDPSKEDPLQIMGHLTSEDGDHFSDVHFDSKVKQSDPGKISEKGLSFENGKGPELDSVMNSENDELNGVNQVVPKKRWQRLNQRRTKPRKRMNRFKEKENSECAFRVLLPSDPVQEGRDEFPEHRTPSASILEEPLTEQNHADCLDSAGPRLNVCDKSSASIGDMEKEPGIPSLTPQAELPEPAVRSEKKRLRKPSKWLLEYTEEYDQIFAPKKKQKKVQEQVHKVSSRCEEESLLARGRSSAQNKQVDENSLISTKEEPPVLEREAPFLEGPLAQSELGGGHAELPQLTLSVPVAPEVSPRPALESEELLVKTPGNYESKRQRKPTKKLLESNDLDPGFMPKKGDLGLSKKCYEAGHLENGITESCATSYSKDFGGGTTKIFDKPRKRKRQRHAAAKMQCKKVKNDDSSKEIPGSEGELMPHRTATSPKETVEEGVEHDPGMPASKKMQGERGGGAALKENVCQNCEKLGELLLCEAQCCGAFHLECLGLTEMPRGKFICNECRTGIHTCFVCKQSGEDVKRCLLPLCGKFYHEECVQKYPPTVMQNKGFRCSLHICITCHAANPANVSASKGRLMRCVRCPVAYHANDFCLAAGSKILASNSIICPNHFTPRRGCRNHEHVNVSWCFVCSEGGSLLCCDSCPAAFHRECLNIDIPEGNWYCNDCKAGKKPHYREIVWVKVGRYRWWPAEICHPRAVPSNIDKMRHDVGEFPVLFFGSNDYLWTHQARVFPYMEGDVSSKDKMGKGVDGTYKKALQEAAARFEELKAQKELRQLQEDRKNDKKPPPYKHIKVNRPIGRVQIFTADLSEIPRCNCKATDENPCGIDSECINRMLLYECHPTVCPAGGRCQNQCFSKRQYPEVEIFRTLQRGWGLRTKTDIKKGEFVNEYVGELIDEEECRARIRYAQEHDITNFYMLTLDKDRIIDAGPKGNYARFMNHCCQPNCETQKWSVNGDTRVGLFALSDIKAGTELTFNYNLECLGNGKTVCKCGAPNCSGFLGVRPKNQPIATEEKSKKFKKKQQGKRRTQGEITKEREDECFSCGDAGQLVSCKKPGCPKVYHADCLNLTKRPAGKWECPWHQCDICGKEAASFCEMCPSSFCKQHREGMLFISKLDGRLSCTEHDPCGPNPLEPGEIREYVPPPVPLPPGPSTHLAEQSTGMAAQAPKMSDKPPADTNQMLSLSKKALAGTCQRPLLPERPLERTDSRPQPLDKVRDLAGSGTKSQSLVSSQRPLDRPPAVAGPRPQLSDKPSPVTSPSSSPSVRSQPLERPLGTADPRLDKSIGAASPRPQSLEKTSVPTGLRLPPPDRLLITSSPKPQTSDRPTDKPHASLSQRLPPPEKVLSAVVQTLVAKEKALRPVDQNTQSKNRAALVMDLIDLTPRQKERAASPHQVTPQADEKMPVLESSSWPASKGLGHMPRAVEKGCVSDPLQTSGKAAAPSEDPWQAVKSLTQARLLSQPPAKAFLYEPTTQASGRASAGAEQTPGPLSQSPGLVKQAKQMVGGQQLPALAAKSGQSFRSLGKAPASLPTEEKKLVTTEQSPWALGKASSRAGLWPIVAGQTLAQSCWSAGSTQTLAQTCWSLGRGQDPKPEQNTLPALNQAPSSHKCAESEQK
von Hippel-Lindau disease tumor suppressor/Histone-lysine N-methyltransferase NSD3, sequence (P40337 whole entry, one chain of several): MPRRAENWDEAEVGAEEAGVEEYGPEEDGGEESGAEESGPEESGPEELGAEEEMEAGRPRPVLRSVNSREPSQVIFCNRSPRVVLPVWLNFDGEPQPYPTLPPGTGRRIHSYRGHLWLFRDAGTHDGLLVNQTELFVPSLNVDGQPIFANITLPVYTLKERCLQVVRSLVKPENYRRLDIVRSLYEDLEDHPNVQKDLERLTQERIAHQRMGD

As for `O=C1C(Cl)=C(NCCN2CCOCC2)C(=O)c2ncccc21`, the IC50 in [1] came to 0.11 µM; in [2] it was 0.26 µM.
On to `Cc1cc(CN)cc(C)c1-c1ncn(C)c1-c1ccnc2cc(F)ccc12`, for which the half-inhibitory concentration (IC50) is 1.2 µM in [3], 26.8 µM in the assay with MOLM-13 [4], 13 µM in [5] and 0.139 µM with MOLM-13 [6].
As for `Cc1cc(CNCCCC(=O)NCCCCCCCCC(=O)N[C@H](C(=O)N2C[C@@H](O)C[C@@H]2C(=O)N[C@H](C)c2ccc(-c3scnc3C)cc2)C(C)(C)C)cc(C)c1-c1ncn(C)c1-c1ccnc2cc(F)ccc12`, the Kd in [7] stood at 1.3 µM. For the same compound, the EC50 in assay [8] was 4.9 µM; with EOL1, 2.3 µM; in the assay with RS4-11, 3.5 µM; with MM1.S, 3.3 µM.
`Cc1noc(C)c1-c1ncn(C)c1-c1ccnc2cc(F)ccc12`: the Kd in assay [9] was determined as 6.8 µM. Also, the IC50 in assay [10] amounted to 1.9 µM.
In the same order, the values of `Cc1cc(CN)cc(C)c1-c1ncn(C)c1-c1ccncc1` are 9.7 µM and 5.2 µM.
For `CCC[C@H](C)[C@H](NC(=O)[C@@H](NC(=O)CNC(C)=O)C(C)C)C(=O)N[C@@H](CCCNC(=N)N)C(=O)N[C@H](C(N)=O)[C@@H](C)CC` (Ac-GV[X1]RI-NH2), the IC50 came out at 3.2 µM in assay [11] and 22 µM in assay [12].
Regarding `CN1C(=O)[C@@]23C[C@]4([C@]56C[C@@]78SS[C@@](CO)(C(=O)N7[C@H]5Nc5ccccc56)N(C)C8=O)c5ccccc5N[C@@H]4N2C(=O)[C@]1(CO)SS3` [CHAETOCIN], the IC50 in assay [13] was determined as 11 µM; in assay [14] it was 16 µM; in assay [15] it was 6 µM; in assay [2], 3.2 µM.
For `Nc1ncnc2c1ncn2[C@@H]1O[C@H](C[C@@H](N)CC[C@H](N)C(=O)O)[C@@H](O)[C@H]1O` [SINEFUNGIN], the midpoint of inhibition in assay [14], the IC50, lay at 46 µM.
Consider `Cc1ccc(C(=O)Nc2ccc(S(=O)(=O)O)c3cc(S(=O)(=O)O)cc(S(=O)(=O)O)c23)cc1NC(=O)c1cccc(NC(=O)Nc2cccc(C(=O)Nc3cc(C(=O)Nc4ccc(S(=O)(=O)O)c5cc(S(=O)(=O)O)cc(S(=O)(=O)O)c45)ccc3C)c2)c1` [SURAMIN], for which the IC50 in [13] is 12 µM; in assay [15], 21 µM.

For the origin of these results see ChEMBL document CHEMBL5370547, “NSD3: Advances in cancer therapeutic potential and inhibitors research” (Eur J Med Chem, 2023).
